In publication PMC12562681, “Targeting a Tau Kinase Cdk5, Cyclin-Dependent Kinase: A Blood-Based Diagnostic Marker and Therapeutic Earmark for Alzheimer’s Disease” (Biomolecules, 2025):
Like-named read-outs stand apart in the source and are kept apart here. Peptide text beside a SMILES is read from it.

Assays:
Cdk5 [1] = assay: Cdk5 expression by Western blot in Aβ25–35-treated SH-SY5Y cells; type: cell-based; conditions: aggregated Aβ25–35, SH-SY5Y
Description: (§1) The concentration of total protein in cell lysate was measured using the bicinchoninic acid (BCA) assay. Samples were prepared using the 6× protein loading dye and incubated at 95 °C for 15 min. Equal concentrations of cell lysate (50 µg/lane) were fractionated by 10% SDS-PAGE and transferred to PVDF membrane. The membrane was blocked with 5% NFM for 2 h and then probed with their respective primary antibodies: Cdk5 (1:400) and Mcl1 (1:1000), mouse IgG anti-β-amyloid (1:200) (Sc28365), mouse IgG anti-Tau (Tau-46) (1:200) (Santa Cruz Biotechnology Inc., Dallas, TX, USA, Sc32274), rabbit IgG anti-phospho-Tau (Thr181) (1:350) (Cell Signaling Technology, Inc., Danvers, MA, USA, DAF4G), and rabbit antibody IgG anti-β-actin (1:1000) (Cell Signaling Technology, Inc., Danvers, MA, USA). The membranes were incubated with the secondary anti-rabbit and anti-mouse (cat. no. Sc2004, Sc2005) HRP-conjugated antibody (1:4000) at room temperature for 1 h.

Cdk5 mRNA = Cdk5 mRNA by RT-PCR in Aβ25–35-treated SH-SY5Y cells; type: cell-based; conditions: aggregated Aβ25–35 alone; δ-δ CT, GAPDH; triplicate
Excerpt: [36]; Mcl1 forward primer-[NT] and reverse primer-[…] forward primer-[NT] and reverse primer-[NT].

Tau = Tau expression by Western blot in Aβ25–35-treated SH-SY5Y cells; type: cell-based; conditions: aggregated Aβ25–35 alone
Description: as §1

Aβ-amyloid = Aβ-amyloid expression by Western blot in Aβ25–35-treated SH-SY5Y cells; type: cell-based; conditions: aggregated Aβ25–35 alone
Description: as §1

phospho-Tau (Thr181) = assay: p-Tau expression by Western blot in Aβ25–35-treated SH-SY5Y cells; type: cell-based; conditions: aggregated Aβ25–35 alone
Description: as §1

Cdk5 [2] = biological target: T1, Cdk5 (Homo sapiens, UniProt Q00535); assay: Binding study of peptide by SPR (Ni-NTA chip, immobilized recombinant Cdk5); conditions: recombinant Cdk5 on Ni-NTA sensor chip, peptide 0.4, 0.6 and 1 µM, BIA evaluation 3.0, read-out: dissociation constant (KD)
T1 construct: host or cells: E. coli BL21
T1 sequence (Q00535 whole entry): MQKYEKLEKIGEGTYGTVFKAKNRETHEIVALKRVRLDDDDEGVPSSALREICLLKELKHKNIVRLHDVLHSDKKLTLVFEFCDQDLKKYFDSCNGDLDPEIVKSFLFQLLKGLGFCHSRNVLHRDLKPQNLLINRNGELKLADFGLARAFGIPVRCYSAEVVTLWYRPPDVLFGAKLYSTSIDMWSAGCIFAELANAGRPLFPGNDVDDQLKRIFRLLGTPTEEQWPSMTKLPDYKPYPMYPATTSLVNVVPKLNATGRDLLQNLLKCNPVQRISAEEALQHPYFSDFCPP
Description: Different concentrations of purified recombinant human Cdk5 and Mcl1 proteins were passed over the respective flow cells, and corresponding response units (RU) were noted. The standard curve was prepared by plotting different concentrations of pure proteins versus the corresponding RU (Figure S1). Serum samples were diluted (1:79) with HBS-EP buffer and passed over the respective flow cell. The RU for each sample was noted, and the concentration of Cdk5 and Mcl1 in the serum sample was derived from their respective standard curves.
The recombinant Cdk5 protein was immobilized on the Ni-NTA sensor chip by passing NiCl2 solution and the protein. Different concentrations of peptide YCWS (0.4 µM, 0.6 µM, and 1 µM) were passed over it, and changes in RU were noted. The association constant (KA) and dissociation constant (KD) values were calculated using the BIA evaluation 3.0 software.

HEK-293 cells = assay: Cell cytotoxicity assay in HEK-293 cells (MTT); type: cell-based; conditions: 24 h, 48 h and 72 h, up to 50 µM, triplicate
Excerpt: (§2) SH-SY5Y and HEK 293 cells were purchased from NCCS, Pune, India, and were maintained in Ham’s F12 (cat. no. 21700075) and Dulbecco’s Modified Eagle Medium (DMEM, cat. no. 12800017) nutrient media (Gibco, Waltham, MA, USA), respectively, supplemented with 10% (v/v) Fetal Bovine Serum (FBS, cat. no. 10270106) and 1% antibiotic–antimycotic solution (cat. no. CC4003010L, CELL clone, New Delhi, India). The SH-SY5Y cells used in the experiment were of passage number 42–46. Cells were maintained as a monolayer culture at 37 °C with 5% CO2 and 95% relative humidity. Potential contamination in all cells was assessed through STR profiling (DNA Forensic Laboratory Private Limited, New Delhi, India).
The peptide’s effect was initially assessed using the normal HEK 293 cell line, and the cell viability was determined by the 3-(4,5-dimethylthiazol-2-yl)-2,5-diphenyltetrazolium bromide (MTT) (cat. no. T0793) reduction assay. Cells were seeded in 96-well plates at a density of 5 × 10^3 cells per 100 μL per well. Cells were cultured for 24 h and then treated with different concentrations of peptide, i.e., 10 µM, 20 µM, and 50 µM, for different time intervals (24 h, 48 h, and 72 h). At the end of treatment, 10 μL MTT (5 mg/mL) was added in each well and incubated for 4 h at 37 °C. […] The absorbance value at 572 nm was measured using a microplate reader. […]

SHSY-5Y cells = assay: Cytotoxicity of peptide in SHSY-5Y cells; type: cell-based; conditions: discussion statement, concentration and time not given
SH-SY5Y cells = type: cell-based; conditions: triplicate
Excerpt: as §2
Aggregated Aβ25–35 was employed to induce neurotoxicity in SH-SY5Y cells due to its ability to replicate the physiological and biological characteristics of Aβ-amyloid, known to mediate neurotoxic effects and contribute to neuronal cell damage. The effect of peptide on neurotoxicity caused by aggregated Aβ25–35 was assessed via MTT assay. Cells were seeded in 96-well plates at a density of 1 × 10^4 cells per 100 μL per well. Cells were cultured for 24 h and then treated with 20 µM retinoic acid for differentiation. The culture medium was routinely replaced every alternate day for a period of seven days. A stock solution of 20 mM Aβ25–35 was prepared by dissolving 2.12 mg of synthesized Aβ25–35 in 100 µL of 1× PBS and allowed to aggregate at 37 °C for 7 days. Cells were treated with 20 µM aggregated Aβ25–35, along with different concentrations of the peptide YCWS (2 µM, 5 µM, 10 µM, 15 µM, and 20 µM) for 24 h, 48 h, and 72 h. After completion of the treatment duration, cell viability was determined using the MTT assay as described above.

SMILES | Cdk5 protein expression (Cdk5 [1]) | Cdk5 mRNA expression, fold vs control group (Cdk5 mRNA) | tau expression (Tau) | Aβ-amyloid expression (Aβ-amyloid) | p-Tau expression (phospho-Tau (Thr181)) | Kd (Cdk5 [2]) | cytotoxicity, HEK-293 cells (HEK-293 cells) | cytotoxicity, SHSY-5Y cells (SHSY-5Y cells) | cell viability, rescue (SH-SY5Y cells; YCWS 2 µM + 20 µM aggregated Aβ25–35, MTT, time of value not stated (24, 48, 72 h tested)) | cell viability, rescue (SH-SY5Y cells; YCWS 5 µM + 20 µM aggregated Aβ25–35, MTT, time of value not stated (24, 48, 72 h tested)) | cell viability, rescue (SH-SY5Y cells; YCWS 10 µM + 20 µM aggregated Aβ25–35, MTT, time of value not stated (24, 48, 72 h tested)) | cell viability, rescue (SH-SY5Y cells; YCWS 15 µM + 20 µM aggregated Aβ25–35, MTT, time of value not stated (24, 48, 72 h tested)) | cell viability, rescue (SH-SY5Y cells; YCWS 20 µM ("up to") + 20 µM aggregated Aβ25–35, MTT, p < 0.001 vs Aβ (Mann–Whitney), time of value not stated)
CC[C@H](C)[C@H](NC(=O)[C@H](C)NC(=O)CNC(=O)[C@H](CCCCN)NC(=O)[C@H](CC(N)=O)NC(=O)[C@H](CO)NC(=O)CN)C(=O)N[C@H](C(=O)NCC(=O)N[C@@H](CC(C)C)C(=O)N[C@@H](CCSC)C(=O)O)[C@@H](C)CC [Aβ25–35] (H-GSNKGAIIGLM-OH; N-terminus and C-terminus assumed) | increased the expression of Cdk5 | 1.85 fold | increased | increased | increased | – | – | – | – | – | – | – | –
N[C@@H](Cc1ccc(O)cc1)C(=O)N[C@@H](CS)C(=O)N[C@@H](Cc1c[nH]c2ccccc12)C(=O)N[C@@H](CO)C(=O)O [YCWS] (H-YCWS-OH) | – | – | – | – | – | 3.94 nM | nontoxic | non-toxic | 87.28% | 91.47% | 92.20% | 98.27% | 98.55%
